Source: patent US12157741B2, “Macrocyclic inhibitors of DYRK1A” (DANA-FARBER CANCER INSTITUTE, INC., priority 2018, dated 2024)
Read-outs that look alike come from different tables or passages of the source.

Experiments:
Assay type in all cases: binding
various enzymes [1] = molecular target: various enzymes (Homo sapiens, UniProt Q02156); conditions: compound 1 uM
Description: (§1) Ambit profiling was conducted in accordance with the manufacturer's instructions.

various enzymes [2] = molecular target: various enzymes (Homo sapiens, UniProt Q9BRS2); conditions: compound 1 uM
Description: as §1

various enzymes [3] = molecular target: various enzymes (Homo sapiens, UniProt Q5S007); conditions: compound 1 uM
Description: as §1

various enzymes [4] = molecular target: various enzymes (Homo sapiens, UniProt Q8NI60); conditions: compound 1 uM
Description: as §1

various enzymes [5] = molecular target: various enzymes (Homo sapiens, UniProt O00329); conditions: compound 1 uM
Description: as §1

various enzymes [6] = molecular target: various enzymes (Homo sapiens, UniProt O75716); conditions: compound 1 uM
various enzymes (Homo sapiens, UniProt O75716), sequence (O75716 whole entry): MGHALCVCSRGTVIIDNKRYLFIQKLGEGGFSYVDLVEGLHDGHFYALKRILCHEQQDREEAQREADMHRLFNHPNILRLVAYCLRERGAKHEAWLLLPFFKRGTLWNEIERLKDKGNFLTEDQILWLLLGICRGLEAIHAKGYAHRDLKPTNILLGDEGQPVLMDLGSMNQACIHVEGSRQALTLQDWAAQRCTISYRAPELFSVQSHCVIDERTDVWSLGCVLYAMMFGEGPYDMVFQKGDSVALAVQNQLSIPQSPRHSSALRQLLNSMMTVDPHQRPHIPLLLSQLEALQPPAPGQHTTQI
Description: as §1

various enzymes [7] = molecular target: various enzymes (Homo sapiens, UniProt Q9UKE5); conditions: compound 1 uM
Description: as §1

various enzymes [8] = molecular target: various enzymes (Homo sapiens, UniProt Q86Y07); conditions: compound 1 uM
Description: as §1

various enzymes [9] = molecular target: various enzymes (Homo sapiens, UniProt Q15139); conditions: compound 1 uM
Description: as §1

various enzymes [10] = molecular target: various enzymes (Homo sapiens, UniProt Q9H2X6); conditions: compound 1 uM
Description: as §1

various enzymes [11] = molecular target: various enzymes (Homo sapiens, UniProt Q9UHD2); conditions: compound 1 uM
various enzymes (Homo sapiens, UniProt Q9UHD2), sequence (Q9UHD2 whole entry): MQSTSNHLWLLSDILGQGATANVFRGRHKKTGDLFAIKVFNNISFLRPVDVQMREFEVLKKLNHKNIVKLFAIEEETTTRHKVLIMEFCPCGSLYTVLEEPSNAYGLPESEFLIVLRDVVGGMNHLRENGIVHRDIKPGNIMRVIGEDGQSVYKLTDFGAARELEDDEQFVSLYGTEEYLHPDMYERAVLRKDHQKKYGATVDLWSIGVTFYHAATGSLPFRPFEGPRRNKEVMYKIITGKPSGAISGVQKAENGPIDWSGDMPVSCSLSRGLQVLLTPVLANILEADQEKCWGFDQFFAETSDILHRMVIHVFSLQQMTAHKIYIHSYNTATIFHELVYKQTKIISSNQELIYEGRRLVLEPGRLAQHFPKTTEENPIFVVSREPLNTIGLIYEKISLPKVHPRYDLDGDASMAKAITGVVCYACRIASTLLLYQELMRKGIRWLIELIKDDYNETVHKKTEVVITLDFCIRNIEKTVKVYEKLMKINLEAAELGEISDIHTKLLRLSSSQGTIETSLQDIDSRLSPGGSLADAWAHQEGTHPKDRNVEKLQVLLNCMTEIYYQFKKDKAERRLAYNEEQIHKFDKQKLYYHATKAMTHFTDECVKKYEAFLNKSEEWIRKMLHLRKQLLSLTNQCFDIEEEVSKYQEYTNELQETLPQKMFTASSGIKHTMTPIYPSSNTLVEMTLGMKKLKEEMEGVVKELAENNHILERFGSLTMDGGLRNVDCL
Description: as §1

various enzymes [12] = molecular target: various enzymes (Homo sapiens, UniProt P22607); conditions: compound 1 uM
Description: as §1

various enzymes [13] = molecular target: various enzymes (Homo sapiens, UniProt P00519, M351T)
Description: as §1

various enzymes [14] = molecular target: various enzymes (Homo sapiens, UniProt O00750); conditions: compound 1 uM
Description: as §1

various enzymes [15] = molecular target: various enzymes (Homo sapiens, UniProt P53667); conditions: compound 1 uM
Description: as §1

various enzymes [16] = molecular target: various enzymes (Homo sapiens, UniProt P24941); conditions: compound 1 uM
Description: as §1

various enzymes [17] = molecular target: various enzymes (Homo sapiens, UniProt P06241); conditions: compound 1 uM
Description: as §1

various enzymes [18] = molecular target: various enzymes (Homo sapiens, UniProt P19525); conditions: compound 1 uM
Description: as §1

various enzymes [19] = molecular target: various enzymes (Homo sapiens, UniProt Q02763); conditions: compound 1 uM
Description: as §1

various enzymes [20] = molecular target: various enzymes (Homo sapiens, UniProt P43403); conditions: compound 1 uM
Description: as §1

various enzymes [21] = molecular target: various enzymes (Homo sapiens, UniProt P36507); conditions: compound 1 uM
various enzymes (Homo sapiens, UniProt P36507), sequence (P36507 whole entry): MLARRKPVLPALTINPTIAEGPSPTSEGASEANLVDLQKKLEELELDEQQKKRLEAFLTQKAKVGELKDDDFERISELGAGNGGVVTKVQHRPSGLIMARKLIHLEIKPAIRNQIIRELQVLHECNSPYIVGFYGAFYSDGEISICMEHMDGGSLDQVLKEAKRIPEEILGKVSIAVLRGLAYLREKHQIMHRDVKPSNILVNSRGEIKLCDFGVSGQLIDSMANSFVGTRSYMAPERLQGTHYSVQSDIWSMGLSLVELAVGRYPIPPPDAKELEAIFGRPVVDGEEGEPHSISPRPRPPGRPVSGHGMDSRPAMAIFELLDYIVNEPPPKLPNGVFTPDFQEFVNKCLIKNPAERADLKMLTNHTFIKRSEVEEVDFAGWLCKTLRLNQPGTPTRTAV
Description: as §1

various enzymes [22] = molecular target: various enzymes (Homo sapiens, UniProt P54764); conditions: compound 1 uM
Description: as §1

various enzymes [23] = molecular target: various enzymes (Homo sapiens, UniProt Q15303); conditions: compound 1 uM
Description: as §1

various enzymes [24] = molecular target: various enzymes (Homo sapiens, UniProt Q8NEB9); conditions: compound 1 uM
Description: as §1

various enzymes [25] = molecular target: various enzymes (Homo sapiens, UniProt P24723); conditions: compound 1 uM
various enzymes (Homo sapiens, UniProt P24723), sequence (P24723 whole entry): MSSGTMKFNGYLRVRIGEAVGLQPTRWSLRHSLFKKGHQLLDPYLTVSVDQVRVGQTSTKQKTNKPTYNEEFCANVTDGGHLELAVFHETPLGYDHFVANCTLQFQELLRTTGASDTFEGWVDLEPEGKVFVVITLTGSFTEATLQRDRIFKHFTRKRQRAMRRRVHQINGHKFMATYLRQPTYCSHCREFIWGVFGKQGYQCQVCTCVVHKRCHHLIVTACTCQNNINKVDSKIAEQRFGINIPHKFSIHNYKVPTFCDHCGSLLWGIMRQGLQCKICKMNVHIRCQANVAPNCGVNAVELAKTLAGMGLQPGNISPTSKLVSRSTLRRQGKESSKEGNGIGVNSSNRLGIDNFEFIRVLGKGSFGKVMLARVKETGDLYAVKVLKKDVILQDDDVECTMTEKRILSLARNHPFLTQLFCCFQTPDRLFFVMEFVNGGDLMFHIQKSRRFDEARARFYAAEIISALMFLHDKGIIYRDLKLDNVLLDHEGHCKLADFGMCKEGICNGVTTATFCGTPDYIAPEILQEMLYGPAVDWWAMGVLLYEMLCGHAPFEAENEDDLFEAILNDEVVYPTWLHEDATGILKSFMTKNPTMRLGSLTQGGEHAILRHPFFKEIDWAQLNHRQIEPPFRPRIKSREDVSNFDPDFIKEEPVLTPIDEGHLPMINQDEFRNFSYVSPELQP
Description: as §1

various enzymes [26] = molecular target: various enzymes (Homo sapiens, UniProt Q00535); conditions: compound 1 uM
various enzymes (Homo sapiens, UniProt Q00535), sequence (Q00535 whole entry): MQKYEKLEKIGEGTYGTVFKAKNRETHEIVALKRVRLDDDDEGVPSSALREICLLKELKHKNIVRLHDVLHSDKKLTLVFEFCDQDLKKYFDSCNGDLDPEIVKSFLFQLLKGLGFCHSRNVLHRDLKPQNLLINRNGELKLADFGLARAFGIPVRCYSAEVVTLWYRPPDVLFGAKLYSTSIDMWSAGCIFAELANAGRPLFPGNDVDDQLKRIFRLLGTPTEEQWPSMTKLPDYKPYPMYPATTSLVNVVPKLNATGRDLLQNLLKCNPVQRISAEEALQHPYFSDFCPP
Description: as §1

various enzymes [27] = molecular target: various enzymes (Homo sapiens, UniProt P27448); conditions: compound 1 uM
Description: as §1

various enzymes [28] = molecular target: various enzymes (Homo sapiens, UniProt P53355); conditions: compound 1 uM
Description: as §1

various enzymes [29] = molecular target: various enzymes (Homo sapiens, UniProt O14578); conditions: compound 1 uM
Description: as §1

various enzymes [30] = molecular target: various enzymes (Mycobacterium tuberculosis, UniProt P9WI81); conditions: compound 1 uM
Description: as §1

various enzymes [31] = molecular target: T1, various enzymes (Homo sapiens, UniProt P45985); conditions: compound 1 uM
T1 sequence (P45985 1-399): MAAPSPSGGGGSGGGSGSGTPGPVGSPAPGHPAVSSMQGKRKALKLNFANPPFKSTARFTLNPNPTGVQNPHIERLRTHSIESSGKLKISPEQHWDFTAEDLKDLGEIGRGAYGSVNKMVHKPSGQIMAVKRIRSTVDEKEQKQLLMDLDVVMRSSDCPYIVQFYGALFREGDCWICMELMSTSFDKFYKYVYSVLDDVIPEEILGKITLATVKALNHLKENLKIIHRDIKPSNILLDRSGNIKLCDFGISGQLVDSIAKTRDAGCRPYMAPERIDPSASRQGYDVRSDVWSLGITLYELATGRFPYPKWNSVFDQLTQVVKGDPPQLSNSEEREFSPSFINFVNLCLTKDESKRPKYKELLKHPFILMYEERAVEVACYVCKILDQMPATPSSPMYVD
Description: as §1

various enzymes [32] = molecular target: various enzymes (Homo sapiens, UniProt Q9H3Y6); conditions: compound 1 uM
Description: as §1

various enzymes [33] = molecular target: various enzymes (Homo sapiens, UniProt Q8TF76); conditions: compound 1 uM
various enzymes (Homo sapiens, UniProt Q8TF76), sequence (Q8TF76 whole entry): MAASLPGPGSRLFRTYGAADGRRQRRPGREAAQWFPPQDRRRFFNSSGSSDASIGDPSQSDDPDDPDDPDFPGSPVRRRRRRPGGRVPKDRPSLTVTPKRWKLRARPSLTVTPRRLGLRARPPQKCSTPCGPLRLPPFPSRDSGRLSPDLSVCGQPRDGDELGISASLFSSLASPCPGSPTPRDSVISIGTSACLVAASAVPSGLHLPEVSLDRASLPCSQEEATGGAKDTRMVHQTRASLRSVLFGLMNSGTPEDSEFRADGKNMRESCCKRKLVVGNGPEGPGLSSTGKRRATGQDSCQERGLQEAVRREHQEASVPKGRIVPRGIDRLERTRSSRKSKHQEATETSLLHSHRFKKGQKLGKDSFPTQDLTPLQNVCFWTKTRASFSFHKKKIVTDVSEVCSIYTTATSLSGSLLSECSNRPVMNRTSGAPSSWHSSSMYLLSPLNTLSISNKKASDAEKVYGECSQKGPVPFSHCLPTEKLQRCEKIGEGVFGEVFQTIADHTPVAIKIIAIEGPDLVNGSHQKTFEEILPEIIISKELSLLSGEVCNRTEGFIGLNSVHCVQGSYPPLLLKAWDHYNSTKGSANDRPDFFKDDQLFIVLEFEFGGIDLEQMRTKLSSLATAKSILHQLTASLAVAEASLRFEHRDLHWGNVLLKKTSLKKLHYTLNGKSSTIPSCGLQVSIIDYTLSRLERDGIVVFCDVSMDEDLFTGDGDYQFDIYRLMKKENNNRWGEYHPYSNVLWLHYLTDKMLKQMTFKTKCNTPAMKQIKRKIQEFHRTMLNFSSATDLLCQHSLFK
Description: as §1

various enzymes [34] = molecular target: various enzymes (Homo sapiens, UniProt Q9Y463); conditions: compound 1 uM
various enzymes (Homo sapiens, UniProt Q9Y463), sequence (Q9Y463 whole entry): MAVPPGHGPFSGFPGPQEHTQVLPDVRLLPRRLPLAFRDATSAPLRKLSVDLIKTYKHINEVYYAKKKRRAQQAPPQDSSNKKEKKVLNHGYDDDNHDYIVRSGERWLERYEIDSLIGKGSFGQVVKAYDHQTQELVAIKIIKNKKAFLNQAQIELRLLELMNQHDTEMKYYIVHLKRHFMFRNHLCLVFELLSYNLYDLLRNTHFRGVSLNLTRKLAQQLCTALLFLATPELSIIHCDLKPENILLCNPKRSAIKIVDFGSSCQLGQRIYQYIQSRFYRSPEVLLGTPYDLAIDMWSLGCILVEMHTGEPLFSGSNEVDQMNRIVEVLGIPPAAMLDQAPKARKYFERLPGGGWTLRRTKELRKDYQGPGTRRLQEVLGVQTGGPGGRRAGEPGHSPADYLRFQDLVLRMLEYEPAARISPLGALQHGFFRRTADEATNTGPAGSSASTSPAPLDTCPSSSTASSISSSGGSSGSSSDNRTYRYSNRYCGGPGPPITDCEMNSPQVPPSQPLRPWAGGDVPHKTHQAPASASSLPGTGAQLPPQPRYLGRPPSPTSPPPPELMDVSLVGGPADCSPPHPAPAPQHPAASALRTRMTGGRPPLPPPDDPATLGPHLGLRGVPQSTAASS
Description: as §1

various enzymes [35] = molecular target: various enzymes (Homo sapiens, UniProt Q16816); conditions: compound 1 uM
various enzymes (Homo sapiens, UniProt Q16816), sequence (Q16816 whole entry): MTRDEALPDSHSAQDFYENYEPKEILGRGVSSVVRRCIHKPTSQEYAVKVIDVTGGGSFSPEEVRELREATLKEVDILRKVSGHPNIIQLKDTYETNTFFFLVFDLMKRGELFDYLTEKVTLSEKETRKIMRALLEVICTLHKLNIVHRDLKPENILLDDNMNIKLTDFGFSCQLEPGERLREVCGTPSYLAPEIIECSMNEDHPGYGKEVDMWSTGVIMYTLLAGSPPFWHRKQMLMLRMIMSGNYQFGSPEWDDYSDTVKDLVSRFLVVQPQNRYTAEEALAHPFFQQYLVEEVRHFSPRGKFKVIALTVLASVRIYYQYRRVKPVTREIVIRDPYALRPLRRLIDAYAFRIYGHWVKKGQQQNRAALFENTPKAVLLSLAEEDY
Description: as §1

various enzymes [36] = molecular target: various enzymes (Homo sapiens, UniProt P57059); conditions: compound 1 uM
Description: as §1

various enzymes [37] = molecular target: various enzymes (Homo sapiens, UniProt P00519, H396P); conditions: compound 1 uM
Description: as §1

various enzymes [38] = molecular target: T2, various enzymes (Homo sapiens, UniProt P36888, F691L, form not given)
T2 construct: other: FLT3(ITD, F691L); 1 uM; other: compound 1 uM
Description: as §1

various enzymes (Homo sapiens, UniProt Q02156), sequence (Q02156 whole entry): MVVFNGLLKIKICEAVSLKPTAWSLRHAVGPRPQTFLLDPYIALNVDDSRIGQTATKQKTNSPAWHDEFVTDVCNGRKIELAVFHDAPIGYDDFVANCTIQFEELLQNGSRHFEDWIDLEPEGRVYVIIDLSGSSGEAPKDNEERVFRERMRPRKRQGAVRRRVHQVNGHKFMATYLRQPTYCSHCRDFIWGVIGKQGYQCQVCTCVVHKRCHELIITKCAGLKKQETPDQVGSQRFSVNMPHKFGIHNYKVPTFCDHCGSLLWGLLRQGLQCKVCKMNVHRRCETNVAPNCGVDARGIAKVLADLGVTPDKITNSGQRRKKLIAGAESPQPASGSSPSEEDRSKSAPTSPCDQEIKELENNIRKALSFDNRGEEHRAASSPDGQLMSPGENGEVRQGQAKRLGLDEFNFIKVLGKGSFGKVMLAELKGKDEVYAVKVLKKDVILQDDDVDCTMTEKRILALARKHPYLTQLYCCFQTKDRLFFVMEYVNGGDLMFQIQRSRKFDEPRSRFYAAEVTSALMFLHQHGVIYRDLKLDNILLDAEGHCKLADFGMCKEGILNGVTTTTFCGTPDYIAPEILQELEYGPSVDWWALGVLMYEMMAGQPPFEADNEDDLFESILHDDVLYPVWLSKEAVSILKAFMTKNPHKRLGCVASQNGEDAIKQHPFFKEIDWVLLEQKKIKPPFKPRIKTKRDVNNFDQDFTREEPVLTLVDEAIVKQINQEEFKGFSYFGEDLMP

Row | Structure (SMILES) | Ambit profiling: PRKCE (various enzymes [1]) | Ambit profiling: LRRK2 (various enzymes [3]) | Ambit profiling: ADCK3 (various enzymes [4]) | Ambit profiling: PIK3CD (various enzymes [5]) | Ambit profiling: STK16 (various enzymes [6]) | Ambit profiling: TNIK (various enzymes [7]) | Ambit profiling: VRK2 (various enzymes [8]) | Ambit profiling: PRKD1 (various enzymes [9]) | Ambit profiling: HIPK2 (various enzymes [10]) | Ambit profiling: TBK1 (various enzymes [11]) | Ambit profiling: FGFR3 (various enzymes [12]) | Ambit profiling: PIK3C2B (various enzymes [14]) | Ambit profiling: LIMK1 (various enzymes [15]) | Ambit profiling: CDK2 (various enzymes [16]) | Ambit profiling: FYN (various enzymes [17]) | Ambit profiling: PRKR (various enzymes [18]) | Ambit profiling: TIE2 (various enzymes [19]) | Ambit profiling: ZAP70 (various enzymes [20]) | Ambit profiling: MEK2 (various enzymes [21]) | Ambit profiling: EPHA4 (various enzymes [22]) | also measured
1 | COc1c2c(nn1C)CN(C(C)C)C(=O)CCCn1cc(c(C(F)(F)F)n1)-c1c[nH]c3ncc-2cc13 [Compound 50, (Z)-5-isopropyl-35-methoxy-31-methyl-13-(trifluoromethyl)-11H,21H,31H-5-aza-2(3,5)-pyrrolo[2,3-b]pyridina-1(4,1),3(4,3)-dipyrazolacyclononaphan-6-one] | 30 | 50 | 73 | 94 | 12 | 13 | 20 | 33 | 13 | 3.8 | 7.6 | 100 | 91 | 62 | 28 | 84 | 2.7 | 100 | 11 | 63 | Ambit profiling: RIOK1 (various enzymes [2]): 16; Ambit profiling: ABL1(M351T)-phosphorylated (various enzymes [13]): 4.1; Ambit profiling: ERBB4 (various enzymes [23]): 32; Ambit profiling: VPS34 (various enzymes [24]): 83; Ambit profiling: PRKCH (various enzymes [25]): 85; Ambit profiling: CDK5 (various enzymes [26]): 89; Ambit profiling: MARK3 (various enzymes [27]): 43; Ambit profiling: DAPK1 (various enzymes [28]): 65; Ambit profiling: CIT (various enzymes [29]): 31; Ambit profiling: PKNB(M. tuberculosis) (various enzymes [30]): 36; Ambit profiling: MEK4 (various enzymes [31]): 16; Ambit profiling: SRMS (various enzymes [32]): 81; Ambit profiling: HASPIN (various enzymes [33]): 42; Ambit profiling: DYRK1B (various enzymes [34]): 5.2; Ambit profiling: PHKG1 (various enzymes [35]): 34; Ambit profiling: SIK (various enzymes [36]): 57; Ambit profiling: ABL1(H396P)-nonphosphorylated (various enzymes [37]): 0.2; Ambit profiling: ABL1(H396P)-phosphorylated (various enzymes [37]): 3.9; Ambit profiling: FLT3(ITD, F691L) (various enzymes [38]): 0
2 | CC(C)N1Cc2nn(C)cc2-c2cnc3[nH]cc(c3c2)-c2cn(nc2C(F)(F)F)CCCC1=O [Compound 45, (Z)-5-isopropyl-31-methyl-13-(trifluoromethyl)-11H,21H,31H-5-aza-2(3,5)-pyrrolo[2,3-b]pyridina-1(4,1),3(4,3)-dipyrazolacyclononaphan-6-one] | 90 | 44 | 100 | 92 | 1.9 | 5.6 | 37 | 36 | 6 | 0 | 5.4 | 92 | 93 | 35 | 39 | 71 | 6.7 | 83 | 12 | 88 | Ambit profiling: RICK1 (various enzymes [2]): 1.4; Ambit profiling: ABL1(M351T)-phosphorylated (various enzymes [13]; compound 1 uM): 19; Ambit profiling: ERBB4 (various enzymes [23]): 55; Ambit profiling: VPS34 (various enzymes [24]): 100; Ambit profiling: PRKCH (various enzymes [25]): 100; Ambit profiling: CDK5 (various enzymes [26]): 86; Ambit profiling: MARK3 (various enzymes [27]): 32; Ambit profiling: DAPK1 (various enzymes [28]): 92; Ambit profiling: CIT (various enzymes [29]): 17; Ambit profiling: PKNB(M. tuberculosis) (various enzymes [30]): 7; Ambit profiling: MEK4 (various enzymes [31]): 0.5; Ambit profiling: SRMS (various enzymes [32]): 69; Ambit profiling: HASPIN (various enzymes [33]): 2.3; Ambit profiling: DYRK18 (various enzymes [34]): 0.55; Ambit profiling: PHKG1 (various enzymes [35]): 34; Ambit profiling: SIK (various enzymes [36]): 74; Ambit profiling: ABL1(H396P)-nonphosphorylated (various enzymes [37]): 1.9; Ambit profiling: ABL1(H396P)-phosphorylated (various enzymes [37]): 24; Ambit profiling: FLT3(ITD, F691L) (various enzymes [38]; compound 1 uM): 0
